From publication PMC9814544 (Communications Chemistry, 2020)
In brackets after ≈: the same amount, converted by molar mass. Several values for one entry are separate records, joined by “and”; a condition that tells them apart may be missing. Equal entries are not always repeated. Where two headings read alike, the source gives them in different places.

Tests used:
LOX129 (LOX-1 129-273) [1] = target: T1, LOX129 (LOX-1 129-273) (Homo sapiens, UniProt P78380); test: Isothermal titration calorimetry; format: binding
T1 construct: 6His-tag with thrombin cleavage site (N, cleaved yes); made in house; host or cells: E. coli SHuffle cells (New England BioLabs), pET28a
Experimental: For additional biophysical profiling of the specific SPR binders, isothermal titration calorimetry (ITC) was used. Due to limited solubility of the compounds, an inverse setup was used by titrating LOX129 into compound solution. The mean Kd value of three independent measurements is 7 µM (Supplementary Table 4).
Isothermal titration calorimetry experiments were conducted on a MicroCal iTC200 instrument (Malvern) using LOX-1 that had been passed through a PD-10 desalting column (GE Healthcare) equilibrated with 20 mM Tris pH 7.3 and 150 mM NaCl. Complete saturation of 35 µM, respectively 40 µM LOX inhibitor was typically achieved by injecting 18× 2 µl aliquots of 300 µM LOX-1 at a temperature of 25 °C. As a control 300 µM LOX-1 was injected in buffer (n = 1, Supplementary Fig. 19).
The thermodynamic binding parameters were extracted by non-linear regression analysis of the binding isotherms (MicroCal PEAQ-ITC Analysis Software). A single-site binding model was applied yielding the binding enthalpy (ΔH), stoichiometry (n), entropy (ΔS) and association constant (Ka). The binding isotherm of protein in buffer control was not subtracted during data evaluation.

[2] = AF dye fluorescence quenching assay; conditions: at 30 µM; n = 1
Experimental: Employing filter criteria like < 65% control in the primary assay and a minimum difference of 30% to the SR-B1 counter screen, about 3300 compounds remained. These compounds were tested in concentration response using both assay formats (Supplementary Fig. 1). To qualify the identified compounds further we developed additional assays with the goal to identify compounds that merely quenched the AF dye fluorescence. In this assay, the fluorescence signal of human AF647- or AF594-labeled oxLDL was recorded in the presence and absence of compound. Only compounds without relevant quenching were subsequently selected for further analysis.
Furthermore, quenching assays were established to eliminate compounds showing quenching of the AF594 or AF647 dye fluorescence. For this, human oxLDL labeled with either AF594 or AF647 was incubated with compound and the fluorescence signal with and without compound was measured to determine the quenching of the fluorescence. For both compounds quenching of fluorescence has been tested with n = 1.

[3] = Metabolic stability in rat liver microsomes; format: in vitro ADME; conditions: in vitro clearance as % hepatic blood flow, n = 1
Experimental: (§1) The metabolic degradation of the test compound is assayed at 37 °C with microsomes. The final incubation volume of 100 µl per time point contains TRIS buffer pH 7.6 at RT (0.1 M), magnesium chloride (5 mM), microsomal protein (1 mg/ml or 0.5 mg/ml depending on species) and the test compound at a final concentration of 1 µM.
(§2) Following a short preincubation period at 37 °C, the reactions were initiated by addition of beta-nicotinamide adenine dinucleotide phosphate, reduced form (NADPH, 1 mM) and terminated by transfering an aliquot into solvent after different time points. The quenched incubations are pelleted by centrifugation (10000 g, 5 min). An aliquot of the supernatant is assayed by LC-MS/MS for the amount of parent compound. The slope of the semi logarithmic plot of the concentration-time profile determines the half-life. The clearance is calculated by upscaling considering the amount of protein in the incubation, microsomal recovery and liver weight and normalized to the hepatic blood flow of the respective species. The number of experiments for BI-0115 is n = 1.

hERG channel = target: T2, hERG channel (Homo sapiens, UniProt Q12809); test: hERG patch-clamp in HEK293 cells; format: cell-based
T2 construct: expressed in transfected cells; host or cells: HEK293
Experimental: hERG-mediated membrane currents are recorded in HEK (human embryonic kidney) 293 cells stably transfected with hERG cDNA, using the whole-cell configuration of the patch-clamp technique as previously described. The number of experiments for BI-0115 is n = 1.

[4] = PAMPA passive permeability; format: in vitro ADME
Excerpt: The PAMPA assay provides data on the passive permeability of test compounds through immobilized artificial phospholipid membranes. The method used was extensively described previously. The number of experiments for BI-0115 is n = 1.

LOX129 (LOX-1 129-273) [5] = target: T1, LOX129 (LOX-1 129-273); test: Surface plasmon resonance, immobilized LOX129; format: binding
Experimental: To enable surface plasmon resonance spectroscopy (SPR), LOX129 was immobilized on a SPR chip by amine coupling and compounds were analyzed for binding. Based on the individual sensorgrams the compounds were classified as non-binders, over-stoichiometric binders or dose-dependent binders. In total four different structural classes could be confirmed as dose-dependent and stoichiometric binders. […] The mean binding ratio is 0.78 (Supplementary Table 3). Assuming a high percentage of active, binding competent protein on the chip surface, this ratio represents less than one BI-0115 molecule per LOX-1 monomer.
Binding studies were performed using a Biacore T200 instrument (GE Healthcare) at 25 °C in 20 mM HEPES pH 6.8, 150 mM NaCl, 0.05% Tween 20, and 1% DMSO at a flow rate of 30 μL/min. The interaction analyses were performed in the multi-cycle kinetic mode using 120 s association time and 600 s dissociation time at the following LOX-1 inhibitor concentrations 0.391, 0.78, 1.56, 3.125, 6.25, 12.5 and 25 µM. Data were analyzed using the Biacore T200 Evaluation Software 2.0. Due to a transient binding, the KD was determined from a plot of steady state response levels against analyte concentration (affinity plot). The mean KD value was determined from four individual experiments (Supplementary Table 3). The binding ratio is the average number of compound molecules bound per LOX-1 protein on the surface.

[6] = High throughput solubility; format: physicochemical; conditions: for solubility at 24 h: aqueous buffer, kinetic from dmso stock, n = 1
Experimental: The aqueous solubility of the test compound is determined by comparing the amount dissolved in buffer to the amount in an acetonitrile/water (1/1) solution. Starting from a 10 mM DMSO stock solution aliquots are diluted with acetonitrile/water (1/1) or buffer resp. After 24h of shaking, the solutions are filtrated and analyzed by LC-UV. The amount dissolved in buffer is compared to the amount in the acetonitrile solution. Solubility will usually be measured from 0.001 to 0.125 mg/ml at a DMSO concentration of 2.5%. The solubility at the different pH values for BI-0115 were measured with n = 1.

[7] = Metabolic stability in human liver microsomes; format: in vitro ADME; conditions: in vitro clearance as % hepatic blood flow, n = 1
Experimental: as §1, §2

T2 sequence (Q12809 whole entry): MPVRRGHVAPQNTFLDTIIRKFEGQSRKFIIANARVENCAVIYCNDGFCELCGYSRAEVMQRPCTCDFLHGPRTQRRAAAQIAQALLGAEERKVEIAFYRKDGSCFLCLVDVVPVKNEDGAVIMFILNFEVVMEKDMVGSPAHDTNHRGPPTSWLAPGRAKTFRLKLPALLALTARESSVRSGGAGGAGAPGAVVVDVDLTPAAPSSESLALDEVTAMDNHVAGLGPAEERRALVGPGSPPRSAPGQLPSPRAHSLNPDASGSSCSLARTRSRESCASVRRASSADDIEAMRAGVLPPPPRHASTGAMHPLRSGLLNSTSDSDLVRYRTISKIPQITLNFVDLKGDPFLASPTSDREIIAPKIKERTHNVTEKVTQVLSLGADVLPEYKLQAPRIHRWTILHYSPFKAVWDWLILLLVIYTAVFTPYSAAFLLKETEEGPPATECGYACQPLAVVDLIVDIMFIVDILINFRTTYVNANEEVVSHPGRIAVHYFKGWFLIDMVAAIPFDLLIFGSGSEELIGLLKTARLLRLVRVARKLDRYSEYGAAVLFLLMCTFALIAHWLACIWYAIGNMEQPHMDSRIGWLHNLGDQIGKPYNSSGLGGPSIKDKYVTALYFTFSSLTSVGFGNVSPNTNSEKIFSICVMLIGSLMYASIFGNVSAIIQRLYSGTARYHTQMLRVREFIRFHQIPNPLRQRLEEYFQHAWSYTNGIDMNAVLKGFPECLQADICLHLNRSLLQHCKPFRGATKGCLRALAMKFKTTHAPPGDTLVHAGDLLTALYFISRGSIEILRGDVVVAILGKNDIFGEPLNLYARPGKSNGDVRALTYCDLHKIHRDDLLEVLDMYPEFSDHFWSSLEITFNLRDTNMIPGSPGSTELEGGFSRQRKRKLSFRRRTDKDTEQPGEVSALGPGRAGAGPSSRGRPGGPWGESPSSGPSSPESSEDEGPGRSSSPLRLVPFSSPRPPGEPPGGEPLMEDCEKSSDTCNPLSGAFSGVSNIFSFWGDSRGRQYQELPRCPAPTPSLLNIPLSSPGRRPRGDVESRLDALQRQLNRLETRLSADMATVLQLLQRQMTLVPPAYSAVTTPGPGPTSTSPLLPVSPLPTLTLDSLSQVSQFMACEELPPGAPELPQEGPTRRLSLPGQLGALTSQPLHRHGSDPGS

With `CCCN1C(=O)c2ccc(Cl)cc2Nc2ncccc21` [BI-0115] the “ITC thermodynamic driving force” value (LOX129 (LOX-1 129-273) [1]; in words) was “strong entropic contribution”, the Kd (LOX129 (LOX-1 129-273) [1]; mean of n = 3, 300 µM LOX129 dimer titrated into compound, 25 °C, read-out: ITC Kd) was 7 µM and 6.99 µM and the “ITC N (molar ratio protein:inhibitor)” value (LOX129 (LOX-1 129-273) [1]; stoichiometry, mean of n = 3) was 1.8 and 1.77 ±0.34. For the same compound, the “Quench Assay” value [2] was −9.1%, the “micr. Stab rLM” value [3] was 95 %QH and the “inhibition of the hERG channel” value (hERG channel; in words) was “no inhibition”. For the same compound, the IC50 (hERG channel; whole-cell patch-clamp, n = 1) was > 10 µM, the Papp ([4]; PAMPA, n = 1) was 1.5 ×10⁻⁶ cm/s and the “Permeability, PAMPA assay” value ([4]; in words) was “good”. For the same compound, the SPR binding kinetics (LOX129 (LOX-1 129-273) [5]; in words) was “fast binding kinetics”, the SPR binding ratio (LOX129 (LOX-1 129-273) [5]; mean of n = 4, compound molecules bound per LOX-1 protein on the surface) was 0.78 and the Kd (LOX129 (LOX-1 129-273) [5]; mean of n = 4, steady-state fit, 25 °C, read-out: SPR Kd) was 4.32 µM and 4.3 µM. The “SPR binding ratio, individual measurements” value (LOX129 (LOX-1 129-273) [5]; measurements 1-4, Supplementary Table 3) was 0.79 and 0.84 and 0.73 and 0.77, the Kd (LOX129 (LOX-1 129-273) [5]; measurements 1-4, Supplementary Table 3, read-out: SPR KD, individual measurements) was 3.8 µM and 4.6 µM and 4.12 µM and 4.76 µM and the solubility at 24 h ([6]; pH 4, aqueous buffer, pH4, read-out: Solubility pH4) was 1 µg/mL (≈ 3.48 µM). For the same compound, the solubility at 24 h ([6]; pH 7, aqueous buffer, pH7, read-out: Solubility pH7) was 1 µg/mL (≈ 3.48 µM), the compound solubility ([6]; in words) was “low” and the “micr. Stab hLM” value [7] was 77 %QH.
